Several values for one entry are separate records, joined by “and”; a condition that tells them apart may be missing. Equal entries are not always repeated. Marks after values point to notes of the source that are not given here.
Test system: Escherichia coli AID#172
Assay: Peritonitis/sepsis model in neutropenic NMRI mice, effect over time of 7.5 mg/kg (Example 3)
Type: in vivo
Set-up: key to Score T = 0 hour / Score T = 5 hours / Score T = 2 hours: Score 0: Healthy.; Score 1: Minor clinical signs of infection and inflammation e.g. observations of minor signs of distress or changed activity.; Score 2: Clear signs of infection like, social withdrawal, lack of curiosity, changed body position, piloerection, or changes in pattern of movement.; Score 3: Severe signs of infection like stiff movements, lack of curiosity, changed body position, piloerection, pain, or changes in pattern of movement.; Score 4: Severe pain and the mouse was sacrificed immediately to minimize the suffering of the animal.; Score 5: The mouse was dead
Settings: for CFU levels compared to vehicle: peritoneal fluid at 2 and 5 hours, blood at 5 hours, p<0.01; for difference in CFU levels compared to vehicle treatment, blood / difference in CFU levels compared to vehicle treatment, peritoneum: single i.v. dose (NZ17074 7.5 mg/kg, Meropenem 40 mg/kg); for Score T = 0 hour: score at start of treatment; for log10 CFU Mean Blood / log10 CFU mean PF: group mean; for log10 CFU mean PF / log10 CFU PF: peritoneal fluid
Description: The purpose of this study was to investigate the in vivo efficacy of NZ17074 following intravenous (i.v.) administration of a single dose of 7.5 mg/kg. The effect was tested against Escherichia coli AID#172 in the peritonitis model in neutropenic NMRI mice to avoid the use of mucin as normally applied in the murine peritonitis model. The mice were rendered neutropenic by cyclophosphamide injections. Treatment with 40 mg/kg meropenem was included as a positive control group and treatment with vehicle was included as a negative control group. The colony counts in peritoneal fluid and blood were determined at 2 and 5 hours after treatment.
• 30 outbred, NMRI female mice, 28-32 grams (Harlan Scandinavia) • Escherichia coli AID#172 from Statens Serum Institute, Copenhagen, Denmark. Clinical isolate from a human wound from 2003. Multiresistant (Ampicillin, Ceftazidime, Aztreonam, Gentamicin, Ciprofloxacin) • NZ17074 in Ringer Acetate pH 6, 1.2 ml 0.75 mg/ml. […] Lot no. 09466C Date of expiration: 08-2013 • APODAN®(A-Pharma, 1 g cyclophosphamide) Batch nr. 928491 • Date of expiration: May 2012 • Water, sterile • 0.9% saline, sterile • 5% Horse Blood Agar plates • Lactose bromthymol blue agar plates
The mice were rendered neutropenic by injecting 0.5 ml cyclophosphamide solution intraperitoneally 4 days (200 mg/kg) and 1 day (100 mg/kg) prior to inoculation.
Fresh overnight E. coli AID#172 colonies from a 5% Horse Blood Agar plate were suspended and diluted in sterile saline to approximately 2×10^6CFU/ml.
One hour before start of treatment (time −1 hour) mice were inoculated intraperitoneally with 0.5 ml of the E. coli suspension in the lateral lower quadrant of the abdomen.
The mice were clinically scored for signs of infection at the time of each sampling. • Score 0: Healthy. • Score 1: Minor clinical signs of infection and inflammation e.g. observations of minor signs of distress or changed activity. • Score 2: Clear signs of infection like, social withdrawal, lack of curiosity, changed body position, piloerection, or changes in pattern of movement. • Score 3: Severe signs of infection like stiff movements, lack of curiosity, forced ventilation, changed body position, piloerection, pain, or changes in pattern o movement. • Score 4: Severe pain and the mouse was sacrificed immediately to minimize the suffering of the animal. • Score 5: The mouse was dead.
The mice were treated i.v. in the lateral tail vein over approximately 30 seconds with a single dose of NZ17074, meropenem or vehicle at time 0 hour (see Table 1). The dosing was based on a mean weight of 30 g. Mice that weighed 28-32 g received 0.30 ml solution. Mice that weighed 27-28 g received 0.25 ml solution and mice that weighed 32.1-36 g received 0.35 ml solution. Mouse 17 accidently received 0.35 ml although it weighed 29.5 g.
Colony counts were determined from blood and peritoneal fluid at 0, 2 and 5 hours after treatment according to Table 1.
The mice were anesthetized with O2+CO2 and blood was collected by axilliary cut down. The mice were sacrificed by cervical dislocation and a total of 2 ml sterile saline was injected i.p. and the abdomen gently massaged before it was opened and fluid sampled with a pipette. Each sample was 10 fold diluted in saline and 20-microliter spots were applied on blood agar plates. All agar plates were incubated 18-22 hours at 35° C. in ambient air.
The CFU numbers are log10 transformed before performing calculations to obtain a normal distribution.

[1] = Meropenem 40 mg/kg single dose, sampling T = 2, individual mice
[2] = Meropenem 40 mg/kg single dose, sampling T = 5, p < 0.01 vs vehicle
[3] = Meropenem 40 mg/kg single dose, sampling T = 5, individual mice
[4] = Meropenem 40 mg/kg single dose, individual mice

C[C@@H](O)[C@H]1C(=O)N2C(C(=O)O)=C(S[C@@H]3CN[C@H](C(=O)N(C)C)C3)[C@H](C)[C@H]12 [meropenem]
CFU levels compared to vehicle, blood (40 mg/kg i.v., 2 hours after treatment): lack of significance | CFU levels compared to vehicle (40 mg/kg i.v.): significantly (p<0.01) reduced CFU levels | CFU levels compared to vehicle (40 mg/kg i.v., listed as Meropenem): significant reduction | difference in CFU levels compared to vehicle treatment, blood (2 hours): blood −0.82 log log cfu/ml | difference in CFU levels compared to vehicle treatment, peritoneum (2 hours): 2 hours: peritoneum −1.51 log cfu/ml | difference in CFU levels compared to vehicle treatment, blood (5 hours): blood −1.64 log log cfu/ml | difference in CFU levels compared to vehicle treatment, peritoneum (5 hours): 5 hours: peritoneum −1.51 log cfu/ml | Score T = 0 hour (Meropenem 40 mg/kg single dose, group sampled T = 2, individual mice): 0 | Score T = 0 hour (Meropenem 40 mg/kg single dose, group sampled T = 5, individual mice): 0 | log10 CFU Mean Blood (Meropenem 40 mg/kg single dose, sampling T = 2, not significant vs vehicle): 3.76 log10 CFU | log10 CFU Blood [1]: 3.60 log10 CFU and 3.57 log10 CFU and 4.11 log10 CFU | log10 CFU Mean Blood [2]: 3.10** log10 CFU | log10 CFU Blood [3]: 3.20 log10 CFU and 2.85 log10 CFU and 3.26 log10 CFU | Score T = 2 hours [4]: 1 | Score T = 5 hours [4]: 0 | log10 CFU mean PF (Meropenem 40 mg/kg single dose, sampling T = 2, p < 0.01 vs vehicle): 3.92** log10 CFU | log10 CFU PF [1]: 4.12 log10 CFU and 3.40 log10 CFU and 4.24 log10 CFU | log10 CFU mean PF [2]: 4.21** log10 CFU | log10 CFU PF [3]: 4.38 log10 CFU and 4.00 log10 CFU and 4.26 log10 CFU

Source: patent US20160158317A1, “Antimicrobial Peptide Variants and Polynucleotides Encoding Same” (Adenium Biotech A/S, priority 2010, published 2016)
